Laboratory results: ChEMBL document CHEMBL1144921, “14-amino, 14-alkylamino, and 14-acylamino analogs of oxymorphindole. Differential effects on opioid receptor binding and functional profiles” (J Med Chem, 2003)

Key:
[1] = molecular target: T1, Mu-type opioid receptor (Homo sapiens, UniProt P35372); assay: Percent stimulation of [35S]GTP-gamma-S, binding in recombinant human Opioid receptor mu 1 transfected into CHO cells; format: functional, cell-based
[2] = molecular target: T2, Kappa-type opioid receptor (Homo sapiens, UniProt P41145); assay: Percent stimulation of [35S]GTP-gamma-S, binding in recombinant human Opioid receptor kappa 1 transfected into CHO cells; format: functional, cell-based
[3] = molecular target: T3, Delta-type opioid receptor (Homo sapiens, UniProt P41143); assay: Displacement of [3H]C1-DPDPE from human recombinant Opioid receptor delta 1 on CHO cell membranes.; format: cell-based
[4] = molecular target: T1, Mu-type opioid receptor; assay: Stimulation of [35S]GTP-gamma-S, binding to recombinant human Opioid receptor mu 1 expressed in CHO cells; format: functional, cell-based
[5] = molecular target: T3, Delta-type opioid receptor; assay: Percent stimulation of [35S]GTP-gamma-S, binding to recombinant human Opioid receptor delta 1 expressed in CHO cells; format: functional, cell-based
[6] = molecular target: T2, Kappa-type opioid receptor; assay: Displacement of [3H]U-69593 from human recombinant Opioid receptor kappa 1 on CHO cell membranes.; format: cell-based
[7] = molecular target: T2, Kappa-type opioid receptor; assay: Percent stimulation of […] binding in recombinant human Opioid receptor kappa 1 transfected into CHO cells: Antagonist activity; format: cell-based; conditions: filed as antagonist
[8] = molecular target: T1, Mu-type opioid receptor; assay: Displacement of [3H]DAMGO from human recombinant Opioid receptor mu 1 on CHO cell membranes.; format: cell-based
[9] = molecular target: T3, Delta-type opioid receptor; assay: Stimulation of [35S]GTP-gamma-S, binding at human recombinant Opioid receptor delta 1 transfected into CHO cells.; format: functional, cell-based
[10] = molecular target: Opioid receptors; mu & delta (Homo sapiens) (UniProt P41143+P35372); assay: Selectivity between mu opioid receptor and delta opioid receptor.; format: functional
[11] = molecular target: Opioid receptors; delta & kappa (Homo sapiens) (UniProt P41145+P41143); assay: Selectivity between kappa opioid receptor and delta opioid receptor.; format: functional
[12] = molecular target: T2, Kappa-type opioid receptor; assay: Percent stimulation of [35S]GTP-gamma-S, binding in recombinant human Opioid receptor kappa 1 transfected into CHO cells: Antagonist activity; format: functional, cell-based; conditions: filed as antagonist
[13] = molecular target: T1, Mu-type opioid receptor; assay: Percent stimulation of [35S]GTP-gamma-S, binding in recombinant human mu opioid receptor transfected into CHO cells; format: functional, cell-based
[14] = molecular target: T2, Kappa-type opioid receptor; assay: Stimulation of […] binding at human recombinant Opioid receptor kappa 1 transfected into CHO cells.; format: cell-based

T1 sequence (P35372 whole entry): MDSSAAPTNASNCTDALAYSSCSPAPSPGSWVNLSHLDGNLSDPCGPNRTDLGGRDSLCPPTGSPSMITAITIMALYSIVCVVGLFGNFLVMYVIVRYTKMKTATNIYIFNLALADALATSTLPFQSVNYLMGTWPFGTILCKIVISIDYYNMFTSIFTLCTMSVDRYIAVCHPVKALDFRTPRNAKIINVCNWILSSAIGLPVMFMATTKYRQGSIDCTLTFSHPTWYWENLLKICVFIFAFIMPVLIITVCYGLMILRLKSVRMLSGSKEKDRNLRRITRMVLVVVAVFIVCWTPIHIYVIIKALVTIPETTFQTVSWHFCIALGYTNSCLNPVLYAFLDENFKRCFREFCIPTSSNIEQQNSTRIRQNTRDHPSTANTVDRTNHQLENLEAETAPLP
Chain of Opioid receptors; mu & delta (Homo sapiens) (P35372 whole entry, looked up): as the sequence (P35372 whole entry) above
Chain of Opioid receptors; mu & delta (Homo sapiens) (P41143 whole entry, looked up): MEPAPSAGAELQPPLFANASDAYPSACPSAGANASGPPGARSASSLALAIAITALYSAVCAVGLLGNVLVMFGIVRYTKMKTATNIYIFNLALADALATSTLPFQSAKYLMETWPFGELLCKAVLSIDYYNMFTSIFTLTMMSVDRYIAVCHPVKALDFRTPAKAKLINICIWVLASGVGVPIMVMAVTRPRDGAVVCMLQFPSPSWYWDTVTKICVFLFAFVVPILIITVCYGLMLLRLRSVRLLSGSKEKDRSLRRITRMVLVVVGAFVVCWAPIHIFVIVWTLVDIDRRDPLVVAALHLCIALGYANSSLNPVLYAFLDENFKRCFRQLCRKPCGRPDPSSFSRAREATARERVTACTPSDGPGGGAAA
T2 sequence (P41145 whole entry): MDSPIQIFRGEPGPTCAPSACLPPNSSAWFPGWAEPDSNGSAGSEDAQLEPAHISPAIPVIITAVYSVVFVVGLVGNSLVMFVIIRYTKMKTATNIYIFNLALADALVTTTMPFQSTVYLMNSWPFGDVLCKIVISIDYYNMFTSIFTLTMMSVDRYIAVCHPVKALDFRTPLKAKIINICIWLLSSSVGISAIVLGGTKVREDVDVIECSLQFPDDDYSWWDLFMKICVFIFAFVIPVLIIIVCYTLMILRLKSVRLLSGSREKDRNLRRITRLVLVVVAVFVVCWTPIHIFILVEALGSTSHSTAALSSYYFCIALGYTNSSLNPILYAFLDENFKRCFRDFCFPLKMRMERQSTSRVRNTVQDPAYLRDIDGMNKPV
T3 sequence (P41143 whole entry): as the sequence (P41143 whole entry, looked up) above
Chain of Opioid receptors; delta & kappa (Homo sapiens) (P41143 whole entry, looked up): as above
Chain of Opioid receptors; delta & kappa (Homo sapiens) (P41145 whole entry, looked up): as the sequence (P41145 whole entry) above

SMILES: C[C@@H](NC(=O)[C@@H](N)Cc1ccc(O)cc1)C(=O)NCC(=O)N(C)[C@@H](Cc1ccccc1)C(=O)NCCO
- Stimulation [1]: 100%
- Stimulation [2]: 62%

SMILES: CCN[C@@]12Cc3c([nH]c4ccccc34)[C@@H]3Oc4c(O)ccc5c4[C@@]31CCN(C)C2C5
- Ki [3]: 0.73 nM
- EC50 [4]: 184 nM
- Stimulation [5]: 43%
- Ki [6]: 63.8 nM
- Activity [7]: Antagonist
- Ki [8]: 76.3 nM
- Stimulation [1]: 50%
- EC50 [9]: 0.33 nM
- Selectivity [10]: 105
- Selectivity [11]: 87

SMILES: CCCCCCC(=O)N[C@@]12Cc3c([nH]c4ccccc34)[C@@H]3Oc4c(O)ccc5c4[C@@]31CCN(C)C2C5
- Ki [3]: 10.3 nM
- EC50 [4]: 51.4 nM
- Stimulation [5]: 55%
- Ki [6]: 409 nM
- Ki [8]: 33.4 nM
- Activity [12]: Antagonist
- EC50 [9]: 19 nM
- Selectivity [10]: 3.2
- Stimulation [13]: 44%
- Selectivity [11]: 40

SMILES: CCCCN[C@@]12Cc3c([nH]c4ccccc34)[C@@H]3Oc4c(O)ccc5c4[C@@]31CCN(C)C2C5
- Ki [3]: 1.39 nM
- EC50 [4]: 272 nM
- Stimulation [5]: 36%
- Ki [6]: 36.1 nM
- Ki [8]: 37.2 nM
- EC50 [14]: 936 nM
- Stimulation [1]: 40%
- Stimulation [2]: 33%
- EC50 [9]: 4.71 nM
- Selectivity [10]: 27
- Selectivity [11]: 26

SMILES: Oc1ccc2c3c1O[C@H]1c4[nH]c5ccccc5c4C[C@@]4(O)[C@@H](C2)N(CC2CC2)CC[C@]314
- Activity [12]: Antagonist

SMILES: CCCCC(=O)N[C@@]12Cc3c([nH]c4ccccc34)[C@@H]3Oc4c(O)ccc5c4[C@@]31CCN(C)C2C5
- Ki [3]: 2.07 nM
- EC50 [4]: 149 nM
- Stimulation [5]: 74%
- Ki [6]: 723 nM
- Ki [8]: 51.1 nM
- Activity [12]: Antagonist
- EC50 [14]: 56.9 nM
- Activity [1]: 31%
- EC50 [9]: 3.3 nM
- Selectivity [10]: 25
- Selectivity [11]: 349

SMILES: CN1CC[C@]23c4c5ccc(O)c4O[C@H]2c2[nH]c4ccccc4c2C[C@@]3(NCCCc2ccccc2)C1C5
- Ki [3]: 1.95 nM
- EC50 [4]: 45.1 nM
- Stimulation [5]: 37%
- Ki [6]: 7.79 nM
- Ki [8]: 10.2 nM
- EC50 [14]: 27.2 nM
- Stimulation [2]: 65%
- EC50 [9]: 0.87 nM
- Selectivity [10]: 5
- Stimulation [13]: 50%
- Selectivity [11]: 4

SMILES: Oc1ccc2c3c1O[C@H]1c4[nH]c5c(c4C[C@@]4(O)[C@@H](C2)N(CC2CC2)CC[C@]314)C[C@@]1(O)[C@H]2Cc3ccc(O)c4c3[C@@]1(CCN2CC1CC1)[C@H]5O4
- Activity [12]: Antagonist

SMILES: CN1CC[C@]23c4c5ccc(O)c4O[C@H]2c2[nH]c4ccccc4c2C[C@@]3(CCCc2ccccc2)C1C5
- Ki [3]: 23.6 nM
- EC50 [4]: 21.5 nM
- Stimulation [5]: 65%
- Ki [6]: 63.3 nM
- Ki [8]: 4.91 nM
- EC50 [14]: 96.5 nM
- Stimulation [1]: 91%
- Stimulation [2]: 67%
- EC50 [9]: 7.53 nM
- Selectivity [10]: 0.2
- Selectivity [11]: 2.7

SMILES: CN1CC[C@]23c4c5ccc(O)c4O[C@H]2c2[nH]c4ccccc4c2C[C@@]3(NC(=O)CCc2ccccc2)C1C5
- Ki [3]: 4.23 nM
- EC50 [4]: 5.2 nM
- Stimulation [5]: 72%
- Ki [6]: 24.5 nM
- Ki [8]: 9.61 nM
- Activity [12]: Antagonist
- Stimulation [1]: 27%
- EC50 [9]: 1.4 nM
- Selectivity [10]: 2.3
- Selectivity [11]: 5.8

SMILES: CN1CC[C@]23c4c5ccc(O)c4O[C@H]2c2[nH]c4ccccc4c2C[C@@]3(NCCc2ccccc2)C1C5
- Ki [3]: 1.1 nM
- EC50 [4]: 5.33 nM
- Stimulation [5]: 33%
- Ki [6]: 13.8 nM
- Ki [8]: 1.68 nM
- EC50 [14]: 16.4 nM
- Stimulation [1]: 93%
- Stimulation [2]: 74%
- EC50 [9]: 0.95 nM
- Selectivity [10]: 1.5
- Selectivity [11]: 13

SMILES: CN1CC[C@]23c4c5ccc(O)c4O[C@H]2c2[nH]c4ccccc4c2C[C@@]3(NC(=O)Cc2ccccc2)C1C5
- Ki [3]: 6.55 nM
- EC50 [4]: 95 nM
- Stimulation [5]: 89%
- Ki [6]: 148 nM
- Ki [8]: 29.3 nM
- EC50 [14]: 96.2 nM
- Stimulation [1]: 53%
- Stimulation [2]: 36%
- EC50 [9]: 1.2 nM
- Selectivity [10]: 4.5
- Selectivity [11]: 23

SMILES: CN1CC[C@]23c4c5ccc(O)c4O[C@H]2c2[nH]c4ccccc4c2C[C@@]3(N)C1C5
- Ki [3]: 2.88 nM
- EC50 [4]: > 1000 nM
- Stimulation [5]: 38%
- Ki [6]: 399 nM
- Activity [7]: Antagonist
- Ki [8]: 1050 nM
- EC50 [9]: 8.6 nM
- Selectivity [10]: 365

SMILES: CN1CC[C@]23c4c5ccc(O)c4O[C@H]2c2[nH]c4ccccc4c2C[C@@]3(O)[C@H]1C5 [OXYMORPHINDOLE]
- Ki [3]: 1.28 nM
- Ki [6]: 396 nM
- Ki [8]: 363 nM
- Selectivity [10]: 284
- Selectivity [11]: 309
